Patent publication US10870647B2, “Imidazopyridine derivative, method for preparing same, and pharmaceutical composition containing same as active ingredient for preventing or treating cancer” (DAEGU-GYEONGBUK MEDICAL INNOVATION FOUNDATION, priority 2016, dated 2020)

How the values were obtained:
Assay in all cases: Kinase selectivity, scanMAX Kinase assay panel (DiscoverX), % control at 1 uM
Type in all cases: binding
[1] = target: T1, scanMAX Kinase assay panel (Homo sapiens, UniProt Q99558); conditions: NIK; 1 uM; read-out: Percent Control (%)
T1 construct: purchased DiscoverX
T1 sequence (Q99558 whole entry): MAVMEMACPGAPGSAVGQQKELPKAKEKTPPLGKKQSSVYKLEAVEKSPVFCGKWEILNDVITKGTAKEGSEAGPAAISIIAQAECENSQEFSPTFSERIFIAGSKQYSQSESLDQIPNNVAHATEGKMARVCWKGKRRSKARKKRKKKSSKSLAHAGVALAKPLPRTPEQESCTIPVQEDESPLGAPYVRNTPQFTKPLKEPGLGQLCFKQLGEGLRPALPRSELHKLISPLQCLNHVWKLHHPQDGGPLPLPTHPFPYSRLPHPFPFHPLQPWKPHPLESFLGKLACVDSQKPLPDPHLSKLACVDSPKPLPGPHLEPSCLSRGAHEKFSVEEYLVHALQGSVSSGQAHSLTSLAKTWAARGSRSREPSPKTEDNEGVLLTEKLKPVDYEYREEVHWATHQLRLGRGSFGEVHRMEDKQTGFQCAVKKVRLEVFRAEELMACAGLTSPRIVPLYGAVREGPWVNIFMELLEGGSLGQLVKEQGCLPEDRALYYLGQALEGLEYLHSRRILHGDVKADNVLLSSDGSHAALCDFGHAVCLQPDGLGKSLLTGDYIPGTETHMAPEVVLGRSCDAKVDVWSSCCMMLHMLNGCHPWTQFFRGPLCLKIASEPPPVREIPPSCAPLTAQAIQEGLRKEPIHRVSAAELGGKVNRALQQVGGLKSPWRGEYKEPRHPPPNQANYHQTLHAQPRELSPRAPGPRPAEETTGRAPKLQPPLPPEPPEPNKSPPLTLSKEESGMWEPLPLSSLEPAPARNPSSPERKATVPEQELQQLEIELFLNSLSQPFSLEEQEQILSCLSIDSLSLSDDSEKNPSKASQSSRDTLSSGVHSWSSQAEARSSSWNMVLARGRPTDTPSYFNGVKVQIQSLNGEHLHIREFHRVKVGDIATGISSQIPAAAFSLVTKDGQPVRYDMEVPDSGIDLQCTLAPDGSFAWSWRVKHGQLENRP
Method in brief: (§1)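 Compounds were tested at 1 uM in DMSO against each enzyme in the panel. Percent control was calculated as (compound − positive control)/(negative control − positive control) × 100, and a compound was scored active on a kinase when this value fell below 35.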

[2] = target: T2, scanMAX Kinase assay panel (Homo sapiens, UniProt Q9Y2U5); conditions: MAP3K2; 1 uM; read-out: Percent Control (%)
T2 construct: purchased DiscoverX
T2 sequence (Q9Y2U5 1-619): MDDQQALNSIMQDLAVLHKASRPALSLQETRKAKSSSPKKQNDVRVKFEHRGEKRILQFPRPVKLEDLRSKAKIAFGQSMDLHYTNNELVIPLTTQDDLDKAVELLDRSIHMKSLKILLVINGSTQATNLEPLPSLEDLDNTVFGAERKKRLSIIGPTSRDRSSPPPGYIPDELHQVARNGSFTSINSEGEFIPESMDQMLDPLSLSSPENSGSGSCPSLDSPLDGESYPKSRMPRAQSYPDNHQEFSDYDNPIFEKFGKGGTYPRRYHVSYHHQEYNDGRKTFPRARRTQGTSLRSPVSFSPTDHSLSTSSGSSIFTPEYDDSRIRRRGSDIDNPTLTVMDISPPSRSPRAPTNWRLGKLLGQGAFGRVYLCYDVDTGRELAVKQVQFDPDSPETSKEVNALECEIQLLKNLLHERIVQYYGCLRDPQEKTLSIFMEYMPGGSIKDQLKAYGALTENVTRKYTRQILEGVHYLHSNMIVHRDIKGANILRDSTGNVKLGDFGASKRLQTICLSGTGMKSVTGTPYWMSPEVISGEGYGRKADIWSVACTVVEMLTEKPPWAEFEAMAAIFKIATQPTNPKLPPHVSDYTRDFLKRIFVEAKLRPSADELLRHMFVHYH
Method in brief: as §1

[3] = target: T3, scanMAX Kinase assay panel (Homo sapiens, UniProt O15197); conditions: EPHB6; 1 uM; read-out: Percent Control (%)
T3 construct: purchased DiscoverX
T3 sequence (O15197 32-1021): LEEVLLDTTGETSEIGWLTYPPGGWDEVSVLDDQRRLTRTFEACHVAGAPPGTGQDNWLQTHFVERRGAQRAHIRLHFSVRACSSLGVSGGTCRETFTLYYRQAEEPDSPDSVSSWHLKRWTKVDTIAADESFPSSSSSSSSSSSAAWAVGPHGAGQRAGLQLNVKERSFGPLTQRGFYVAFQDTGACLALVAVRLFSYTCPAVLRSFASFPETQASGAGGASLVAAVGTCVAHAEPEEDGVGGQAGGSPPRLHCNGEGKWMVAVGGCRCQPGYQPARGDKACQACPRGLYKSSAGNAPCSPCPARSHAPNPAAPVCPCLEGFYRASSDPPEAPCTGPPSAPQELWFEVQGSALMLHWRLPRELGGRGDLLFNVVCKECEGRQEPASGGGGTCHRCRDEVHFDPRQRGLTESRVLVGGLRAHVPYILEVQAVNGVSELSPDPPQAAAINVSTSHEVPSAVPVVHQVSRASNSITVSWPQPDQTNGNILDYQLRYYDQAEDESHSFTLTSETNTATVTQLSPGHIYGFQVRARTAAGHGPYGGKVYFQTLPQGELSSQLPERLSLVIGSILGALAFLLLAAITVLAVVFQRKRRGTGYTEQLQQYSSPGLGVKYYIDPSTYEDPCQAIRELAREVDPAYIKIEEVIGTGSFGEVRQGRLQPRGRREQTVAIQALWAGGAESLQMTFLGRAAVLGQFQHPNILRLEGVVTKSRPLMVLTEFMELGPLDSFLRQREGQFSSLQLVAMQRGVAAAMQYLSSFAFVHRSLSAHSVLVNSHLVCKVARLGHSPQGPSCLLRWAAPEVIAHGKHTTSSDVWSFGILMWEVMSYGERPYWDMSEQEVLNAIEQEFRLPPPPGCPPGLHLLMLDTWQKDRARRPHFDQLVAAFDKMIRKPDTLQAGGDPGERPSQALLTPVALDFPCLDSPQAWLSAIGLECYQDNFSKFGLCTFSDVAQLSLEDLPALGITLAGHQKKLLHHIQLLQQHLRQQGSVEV
Method in brief: as §1

[4] = target: T4, scanMAX Kinase assay panel (Homo sapiens, UniProt O14965); conditions: AURKA; 1 uM; read-out: Percent Control (%)
T4 construct: purchased DiscoverX
T4 sequence (O14965 1-403): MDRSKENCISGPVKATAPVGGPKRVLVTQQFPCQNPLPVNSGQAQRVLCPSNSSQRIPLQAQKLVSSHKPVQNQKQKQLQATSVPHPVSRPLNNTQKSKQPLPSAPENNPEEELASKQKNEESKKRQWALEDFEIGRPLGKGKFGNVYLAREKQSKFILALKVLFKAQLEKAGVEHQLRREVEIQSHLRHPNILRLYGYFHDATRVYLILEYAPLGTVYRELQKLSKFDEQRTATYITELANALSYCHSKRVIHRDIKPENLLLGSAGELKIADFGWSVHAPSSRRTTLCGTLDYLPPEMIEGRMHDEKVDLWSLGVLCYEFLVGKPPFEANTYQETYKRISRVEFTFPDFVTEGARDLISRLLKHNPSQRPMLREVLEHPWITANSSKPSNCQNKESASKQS
Method in brief: as §1

[5] = target: T5, scanMAX Kinase assay panel (Homo sapiens, UniProt O00506); conditions: YSK1; 1 uM; read-out: Percent Control (%)
T5 construct: purchased DiscoverX
T5 sequence (O00506 whole entry): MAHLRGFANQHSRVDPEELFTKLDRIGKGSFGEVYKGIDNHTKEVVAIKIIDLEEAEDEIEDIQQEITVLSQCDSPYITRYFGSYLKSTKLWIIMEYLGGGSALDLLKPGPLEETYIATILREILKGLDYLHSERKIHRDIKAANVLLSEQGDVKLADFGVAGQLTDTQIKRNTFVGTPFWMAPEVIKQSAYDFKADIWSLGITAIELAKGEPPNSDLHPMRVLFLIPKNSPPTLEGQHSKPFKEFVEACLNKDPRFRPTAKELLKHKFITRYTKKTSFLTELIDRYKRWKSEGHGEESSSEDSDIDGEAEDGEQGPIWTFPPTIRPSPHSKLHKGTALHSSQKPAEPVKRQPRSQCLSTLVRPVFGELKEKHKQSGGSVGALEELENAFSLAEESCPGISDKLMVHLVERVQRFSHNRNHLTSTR
Method in brief: as §1

[6] = target: T6, scanMAX Kinase assay panel (Homo sapiens, UniProt P22455); conditions: FGFR4; 1 uM; read-out: Percent Control (%)
T6 construct: purchased DiscoverX
T6 sequence (P22455 22-802): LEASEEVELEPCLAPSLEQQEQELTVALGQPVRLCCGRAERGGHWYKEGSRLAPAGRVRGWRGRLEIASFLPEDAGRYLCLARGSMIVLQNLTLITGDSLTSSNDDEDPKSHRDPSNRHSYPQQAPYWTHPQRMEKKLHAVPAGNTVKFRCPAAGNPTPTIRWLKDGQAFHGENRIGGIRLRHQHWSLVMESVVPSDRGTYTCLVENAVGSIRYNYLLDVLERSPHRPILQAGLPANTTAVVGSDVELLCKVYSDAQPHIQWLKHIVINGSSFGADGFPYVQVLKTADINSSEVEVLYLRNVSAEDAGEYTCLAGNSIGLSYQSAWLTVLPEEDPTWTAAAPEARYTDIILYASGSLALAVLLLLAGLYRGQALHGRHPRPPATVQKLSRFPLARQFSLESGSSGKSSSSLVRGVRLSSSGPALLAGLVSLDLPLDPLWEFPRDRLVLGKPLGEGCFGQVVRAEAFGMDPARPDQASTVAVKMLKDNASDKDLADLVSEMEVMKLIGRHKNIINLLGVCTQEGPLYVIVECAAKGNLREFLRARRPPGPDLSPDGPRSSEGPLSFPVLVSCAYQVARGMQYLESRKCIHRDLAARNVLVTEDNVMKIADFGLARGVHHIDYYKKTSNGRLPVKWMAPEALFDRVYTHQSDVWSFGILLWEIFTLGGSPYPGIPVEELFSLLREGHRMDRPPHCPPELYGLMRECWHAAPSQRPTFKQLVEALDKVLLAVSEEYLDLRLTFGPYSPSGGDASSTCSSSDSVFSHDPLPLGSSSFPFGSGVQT
Method in brief: as §1

[7] = target: T7, scanMAX Kinase assay panel (Homo sapiens, UniProt O75914); conditions: PAK3; 1 uM; read-out: Percent Control (%)
T7 construct: purchased DiscoverX
T7 sequence (O75914 whole entry): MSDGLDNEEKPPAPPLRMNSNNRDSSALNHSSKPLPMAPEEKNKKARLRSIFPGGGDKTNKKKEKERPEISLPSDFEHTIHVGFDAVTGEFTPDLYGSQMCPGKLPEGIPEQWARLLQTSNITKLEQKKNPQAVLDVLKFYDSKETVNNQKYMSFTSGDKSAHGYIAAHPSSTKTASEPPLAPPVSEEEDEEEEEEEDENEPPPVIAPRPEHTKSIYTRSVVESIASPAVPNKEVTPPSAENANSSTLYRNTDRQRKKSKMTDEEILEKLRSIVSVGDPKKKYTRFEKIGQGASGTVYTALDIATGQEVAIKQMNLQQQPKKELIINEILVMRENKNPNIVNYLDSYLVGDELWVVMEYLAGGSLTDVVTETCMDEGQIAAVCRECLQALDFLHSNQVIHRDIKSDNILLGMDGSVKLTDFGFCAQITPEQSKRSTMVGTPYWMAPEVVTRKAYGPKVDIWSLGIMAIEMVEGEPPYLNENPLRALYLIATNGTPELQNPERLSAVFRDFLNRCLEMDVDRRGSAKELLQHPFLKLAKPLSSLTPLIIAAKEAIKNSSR
Method in brief: as §1

Structure (SMILES)	remaining binding at 1 µM [1] [%]	remaining binding at 1 µM [2] [%]	remaining binding at 1 µM [3] [%]	remaining binding at 1 µM [4] [%]	remaining binding at 1 µM [5] [%]	remaining binding at 1 µM [6] [%]	remaining binding at 1 µM [7] [%]
Cc1ccc(C(=O)Nc2ccc(CN3CCN(C)CC3)c(C(F)(F)F)c2)cc1C#Cc1cnc2c(Nc3cnn(C)c3)cccn12 [Example 1, 4-methyl-3-((8-((1-methyl-1H-pyrazol-4-yl)amino)imidazo[1,2-a]pyridin-3-yl)ethynyl)-N-(4-((4-methylpiperazin-1-yl)methyl)-3-(trifluoromethyl)phenyl)benzamide]	91	1	1	72	90	0	85
Cc1cn(-c2cc(NC(=O)c3ccc(C)c(C#Cc4cnc5c(Nc6cnn(C)c6)cccn45)c3)cc(C(F)(F)F)c2)cn1 [Example 12, 4-methyl-N-(3-(4-methyl-1H-imidazol-1-yl)-5-(trifluoromethyl)phenyl)-3-((8-((1-methyl-1H-pyrazol-4-yl)amino)imidazo[1,2-a]pyridin-3-yl)ethynyl)benzamide]	85	84	0	100	86	32	95
Cc1ccc(NC(=O)C2(C(=O)Nc3ccc(F)cc3)CC2)cc1C#Cc1cnc2c(Nc3cnn(C(C)C)c3)cccn12 [Example 78]	97	100	0	100	100	100	83
